From patent US8648066B2 (Exelixis, Inc., priority 2009, dated 2014) come the findings set out here.

The structures appear in SMILES notation.

One test concerns the target mTOR/GbL/Raptor (mTORC1) (Homo sapiens, UniProt P42345). Put plainly: mTOR/GbL/Raptor (mTORC1) ELISA assay. In kind it is biochemical. Conditions: phosphorylation of 4E-BP1; 0.2 nM mTORC1, 10 μM ATP; read-out: IC50 in this assay (mTORC1 ELISA). The method, boiled down: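 ELISA read-out: phospho-4E-BP1 captured on Ni-chelate plates and detected with anti-phospho antibody plus HRP-anti-IgG luminescence. The kinase step ran 120 min at ambient temperature with 0.2 nM human mTORC1, 10 µM ATP, 50 nM His-4E-BP1, 10 mM MnCl2, pH 7.2 HEPES.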
For orientation: In an ELISA, binding on a coated surface is turned into a signal by an enzyme label.

A further test concerns the target PI3Kα (Homo sapiens, UniProt P42336). In words: PI3K biochemical assay (luciferase-luciferin ATP consumption). Conditions: 1.5 nM enzyme, 1 μM ATP, 10 μM PIP2; read-out: IC50 for PI3Kα in this assay. How it is done:
PI3Kα activity is measured as the percent of ATP consumed following the kinase reaction using luciferase-luciferin-coupled chemiluminescence. Reactions were conducted in 384-well white, medium binding microtiter plates (Greiner). Kinase reactions were initiated by combining test compounds, ATP, substrate (PIP2), and kinase in a 20 μL volume in a buffer solution. The standard PI3Kalpha assay buffer is composed 50 mM Tris, pH 7.5, 1 mM EGTA, 10 mM MgCl2, 1 mM DTT and 0.03% CHAPS. The standard assay concentrations for enzyme, ATP, and substrate are 1.5 nM, 1 μM, and 10 μM, respectively. The reaction mixture was incubated at ambient temperature for approximately 2 h. Following the kinase reaction, a 10 μL aliquot of luciferase-luciferin mix (Promega Kinase-Glo) was added and the chemiluminescence signal measured using a Victor2 plate reader (Perkin Elmer). Total ATP consumption was limited to 40-60% and IC50 values of control compounds correlate well with literature references. Substituting PI3Kα with PI3Kβ, PI3Kγ, or PI3Kδ, the inhibitory activity of the compounds for the other isoforms of I3K were measured.

Chain of PI3Kα (P42336 whole entry, species assumed): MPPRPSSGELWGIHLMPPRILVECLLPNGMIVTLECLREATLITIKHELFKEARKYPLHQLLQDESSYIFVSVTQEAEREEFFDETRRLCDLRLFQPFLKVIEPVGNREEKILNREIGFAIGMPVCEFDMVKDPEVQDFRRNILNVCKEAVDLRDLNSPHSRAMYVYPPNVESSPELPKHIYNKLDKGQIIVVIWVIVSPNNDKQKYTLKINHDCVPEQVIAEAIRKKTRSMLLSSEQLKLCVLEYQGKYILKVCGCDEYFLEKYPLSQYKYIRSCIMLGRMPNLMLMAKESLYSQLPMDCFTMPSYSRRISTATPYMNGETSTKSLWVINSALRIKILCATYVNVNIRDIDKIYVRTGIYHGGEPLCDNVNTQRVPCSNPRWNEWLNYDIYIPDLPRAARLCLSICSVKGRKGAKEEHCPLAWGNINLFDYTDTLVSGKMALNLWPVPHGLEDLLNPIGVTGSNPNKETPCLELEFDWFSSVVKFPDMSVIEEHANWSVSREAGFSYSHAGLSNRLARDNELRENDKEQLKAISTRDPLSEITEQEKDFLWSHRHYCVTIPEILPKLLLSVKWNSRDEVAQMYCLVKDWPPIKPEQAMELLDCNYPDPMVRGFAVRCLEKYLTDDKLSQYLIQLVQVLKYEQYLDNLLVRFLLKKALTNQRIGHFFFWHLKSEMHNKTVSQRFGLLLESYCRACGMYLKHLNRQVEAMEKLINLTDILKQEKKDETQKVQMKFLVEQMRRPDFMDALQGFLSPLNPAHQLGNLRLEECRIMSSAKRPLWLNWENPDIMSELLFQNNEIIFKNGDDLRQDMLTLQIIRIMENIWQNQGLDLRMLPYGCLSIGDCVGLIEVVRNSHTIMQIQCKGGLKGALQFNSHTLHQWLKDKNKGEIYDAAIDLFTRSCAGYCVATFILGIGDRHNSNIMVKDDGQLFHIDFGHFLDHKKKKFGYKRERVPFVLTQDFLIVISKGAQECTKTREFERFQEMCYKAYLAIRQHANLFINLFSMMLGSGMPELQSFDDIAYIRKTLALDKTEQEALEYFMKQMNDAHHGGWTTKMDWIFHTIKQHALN
Chain of PI3Kα (P27986 whole entry partner, species assumed): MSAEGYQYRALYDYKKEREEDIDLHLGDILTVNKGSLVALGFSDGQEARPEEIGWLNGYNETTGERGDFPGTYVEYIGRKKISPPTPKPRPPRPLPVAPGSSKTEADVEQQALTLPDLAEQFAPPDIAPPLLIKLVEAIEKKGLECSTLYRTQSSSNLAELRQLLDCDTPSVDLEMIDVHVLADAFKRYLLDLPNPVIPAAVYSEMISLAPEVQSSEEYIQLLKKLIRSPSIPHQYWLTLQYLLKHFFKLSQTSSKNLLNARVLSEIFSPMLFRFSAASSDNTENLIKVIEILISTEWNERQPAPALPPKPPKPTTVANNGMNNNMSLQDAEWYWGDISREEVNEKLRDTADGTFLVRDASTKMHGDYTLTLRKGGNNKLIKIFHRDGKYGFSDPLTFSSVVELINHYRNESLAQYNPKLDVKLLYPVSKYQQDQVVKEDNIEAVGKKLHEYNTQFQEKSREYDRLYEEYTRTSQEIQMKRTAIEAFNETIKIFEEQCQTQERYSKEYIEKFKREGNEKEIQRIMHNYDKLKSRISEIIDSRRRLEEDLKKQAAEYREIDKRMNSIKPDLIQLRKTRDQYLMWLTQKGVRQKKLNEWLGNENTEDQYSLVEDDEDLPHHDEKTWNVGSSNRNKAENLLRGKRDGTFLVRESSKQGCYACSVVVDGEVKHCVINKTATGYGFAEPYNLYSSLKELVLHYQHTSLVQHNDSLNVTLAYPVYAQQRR

The IC50 is the concentration that inhibits the measured activity by half. Regarding `Cc1nc2ncc(-c3ccc4c(c3)CN(c3ncnc5c3ccn5C)CCO4)cc2[nH]1` [Example 557, 7-(2-methyl-1H-imidazo[4,5-b]pyridin-6-yl)-4-(7-methyl-7H-pyrrolo[2,3-d]pyrimidin-4-yl)-2,3,4,5-tetrahydro-1,4-benzoxazepine], the results for the concentration for half-maximal inhibition (IC50) at mTOR/GbL/Raptor (mTORC1) and at PI3Kα were 250 to 1000 nM and no less than 2000 nM, respectively.
In the same order, the values of `Cc1c(N2CCOc3ccc(-c4cnc5nc(C6CC6)[nH]c5c4)cc3C2)ncnc1N(C)[C@H](C)c1ccccc1` [Example 535, 6-[7-(2-cyclopropyl-1H-imidazo[4,5-b]pyridin-6-yl)-2,3-dihydro-1,4-benzoxazepin-4(5H)-yl]-N,5-dimethyl-N-[(1R)-1-phenylethyl]pyrimidin-4-amine] are 250 to 1000 nM and 1000 to 2000 nM.
In the same order, the values of `CN(C)Cc1nc2c(c(N3CCOc4ccc(-c5cccc(C(N)=O)c5)cc4C3)n1)CC(C)(C)CC2` [Example 433, 3-(4-{2-[(dimethylamino)methyl]-6,6-dimethyl-5,6,7,8-tetrahydroquinazolin-4-yl}-2,3,4,5-tetrahydro-1,4-benzoxazepin-7-yl)benzamide] are no less than 2000 nM and 1000 to 2000 nM.
As to `CCn1cnc2cc(-c3ccc4c(c3)CN(c3ccnc5ccccc35)CCO4)ccc21` [Example 127, 7-(1-ethyl-1H-benzimidazol-5-yl)-4-quinolin-4-yl-2,3,4,5-tetrahydro-1,4-benzoxazepine], the IC50 at mTOR/GbL/Raptor (mTORC1) is 250 to 1000 nM; at PI3Kα it was no less than 2000 nM.
In the same order, the values of `COc1cc(-c2ccc3c(c2)CN(c2nc(CN(C)C)nc4c2CC(C)(C)CC4)CCO3)ccc1Cl` [Example 326] are 250 to 1000 nM and 1000 to 2000 nM.
In the same order, the values of `Cc1nc2c(-c3ccc4c(c3)CN(c3ncnc5c3CC(C)(C)CC5)CCO4)cncc2[nH]1` [Example 475, 4-(6,6-dimethyl-5,6,7,8-tetrahydroquinazolin-4-yl)-7-(2-methyl-3H-imidazo[4,5-c]pyridin-7-yl)-2,3,4,5-tetrahydro-1,4-benzoxazepine] are no less than 2000 nM and no less than 2000 nM.
The like results for `CC1(C)CCc2ncnc(N3CCOc4ccc(-c5cnc6c(c5)OCC(=O)N6)cc4C3)c2C1` [Example 572, 7-[4-(6,6-dimethyl-5,6,7,8-tetrahydroquinazolin-4-yl)-2,3,4,5-tetrahydro-1,4-benzoxazepin-7-yl]-2H-pyrido[3,2-b][1,4]oxazin-3(4H)-one] were, in that order, no less than 2000 nM and 1000 to 2000 nM.
In the case of `CCNC(=O)c1cccc(-c2ccc3c(c2)CN(c2nc(C)nc4cc(OC)ccc24)CCO3)c1` [Example 638, N-ethyl-3-{4-[2-methyl-7-(methyloxy)quinazolin-4-yl]-2,3,4,5-tetrahydro-1,4-benzoxazepin-7-yl}benzamide], the 50% inhibitory concentration (IC50) on mTOR/GbL/Raptor (mTORC1) and at PI3Kα was no less than 2000 nM each time.
As for `Cc1nc2ccc(-c3ccc4c(c3)CN(c3ccccn3)CCO4)cc2[nH]1` [Example 104, 7-(2-methyl-1H-benzimidazol-6-yl)-4-pyridin-2-yl-2,3,4,5-tetrahydro-1,4-benzoxazepine], the IC50 on mTOR/GbL/Raptor (mTORC1) and at PI3Kα was no less than 2000 nM throughout.
For `c1ccc(-c2nc(N3CCOc4ccc(-c5ccc6nc[nH]c6c5)cc4C3)c3ccccc3n2)cc1` [Example 232, 7-(1H-benzimidazol-6-yl)-4-(2-phenylquinazolin-4-yl)-2,3,4,5-tetrahydro-1,4-benzoxazepine], the IC50 on mTOR/GbL/Raptor (mTORC1) is no less than 2000 nM; at PI3Kα, 1000 to 2000 nM.
In the same order, the values of `Cc1ncc(S(=O)(=O)N(C)C)c(N2CCOc3ccc(-c4cnc5nc(C)[nH]c5c4)cc3C2)n1` [Example 611, N,N,2-trimethyl-4-[7-(2-methyl-1H-imidazo[4,5-b]pyridin-6-yl)-2,3-dihydro-1,4-benzoxazepin-4(5H)-yl]pyrimidine-5-sulfonamide] are 250 to 1000 nM and 1000 to 2000 nM.
Regarding `OCc1ncc(-c2ccc(-c3ccc4c(c3)CN(c3ncnc5cccnc35)CCO4)cc2)[nH]1` [Example 212, {5-[4-(4-pyrido[3,2-d]pyrimidin-4-yl-2,3,4,5-tetrahydro-1,4-benzoxazepin-7-yl)phenyl]-1H-imidazol-2-yl}methanol], the IC50 at mTOR/GbL/Raptor (mTORC1) was 250 to 1000 nM; at PI3Kα, no less than 2000 nM.
In the case of `Cc1nc2ccc(-c3ccc4c(c3)CN(c3cc(C(C)(C)O)nc5c3CC(C)(C)CC5)CCO4)cc2[nH]1` [Example 362], the IC50 on mTOR/GbL/Raptor (mTORC1) and on PI3Kα was 50 to 250 nM throughout.
Take `COC(=O)Nc1nc2cc(-c3ccc4c(c3)CN(c3ccnc5ccccc35)CCO4)ccc2n1C` [Example 115, methyl [1-methyl-5-(4-quinolin-4-yl-2,3,4,5-tetrahydro-1,4-benzoxazepin-7-yl)-1H-benzimidazol-2-yl]carbamate]: the figures for the IC50 on mTOR/GbL/Raptor (mTORC1) and on PI3Kα were no less than 2000 nM and 1000 to 2000 nM, respectively.
The like results for `Cc1nc2ccc(-c3ccc4c(c3)CN(c3ncnc5c3CN(C3CC3)C5)CCO4)cc2[nH]1` [Example 87, 4-(6-cyclopropyl-6,7-dihydro-5H-pyrrolo[3,4-d]pyrimidin-4-yl)-7-(2-methyl-1H-benzimidazol-6-yl)-2,3,4,5-tetrahydro-1,4-benzoxazepine] were, in that order, 250 to 1000 nM and no less than 2000 nM.
In the same order, the values of `COc1cccc(-c2ccc3c(c2)CN(c2nc(CN(C)C)nc4c2CC(C)(C)CC4)CCO3)c1` [Example 328, 1-(6,6-dimethyl-4-{7-[3-(methyloxy)phenyl]-2,3-dihydro-1,4-benzoxazepin-4(5H)-yl]-5,6,7,8-tetrahydroquinazolin-2-yl)-N,N-dimethylmethanamine] are no less than 2000 nM and 1000 to 2000 nM.
The like results for `Cc1cc(N2CCOc3ccc(-c4ccc5[nH]cnc5c4)cc3C2)nc(N)n1` [Example 688, 4-[7-(1H-benzimidazol-5-yl)-2,3-dihydro-1,4-benzoxazepin-4(5H)-yl]-6-methylpyrimidin-2-amine] were, in that order, 250 to 1000 nM and 1000 to 2000 nM.
